# What was measured:
# T. cruzi [1] = test: T. cruzi trypomastigote (TRY) in-vitro screen; format: cell-based
# Description: In-vitro chemotherapy screens have for many years used models involving three stages of the T. cruzi life cycle: • (1) Epimastigote. Dividing populations are easily cultivated in a range of defined and semi-defined media, but are equivalent to a vector stage of the life cycle. • (2) Trypomastigote. These are isolated from a rodent host and can be maintained as a non-dividing population for 24-48 h in media. • (3) Amastigote. Dividing populations can be cultivated in muscle cells, fibroblasts and macrophages, following infection with trypomastigotes. After the initial infection, there is normally a period of 4-5 days during which the amastigotes divide before transforming, via the epimastigote stage, back to trypomastigotes which escape from the cell. Drug activity is measured during this 4-5 day period. A dividing host cell population, low infection rate, and the presence of trypomastigotes in the overlay can complicate the interpretation of results.
# Epstern-Barr Virus (EBV) = test: P3HR1 cells, EBV, immunofluorescence; format: cell-based; settings: P3HR1 cells in-vitro
# Description: Experiments were carried out using concentrated P3HR1 […]. […] Infection of Raji cells by infectious EBV induces early antigens (EA) in the cells in proportion to the titer of infectious virus. EA was detected using a monoclonal antibody.
# The assay was set up with Raji cells exposed for 2 hours to serial 10 fold dilutions of the P3HR1 virus. Excess virus was separated by centrifugation and removed. Aliquots of cells infected at each dilution were distributed into 12 well trays (0.5 ml/well), and 0.5 ml of medium containing twice the desired final medium concentration was added to each well.
# At 24 and 72 hours, aliquots of each well were washed, added to Teflon® outlined wells on a glass slide, air dried to attach then to the glass, and then fixed with acetone-methanol (50:50). Standard immunofluorescence procedures were followed to quantify the percent of cells containing virus at each time, virus dilution and drug concentration.
# T. cruzi [2] = test: T. cruzi intracellular amastigote (AM) in-vitro screen; format: cell-based
# Description: Dividing populations can be cultivated in muscle cells, fibroblasts and macrophages, following infection with trypomastigotes. After the initial infection, there is normally a period of 4-5 days during which the amastigotes divide before transforming, via the epimastigote stage, back to trypomastigotes which escape from the cell. Drug activity is measured during this 4-5 day period. A dividing host cell population, low infection rate, and the presence of trypomastigotes in the overlay can complicate the interpretation of results.
# Intracellular amastigote models can use a range of muscle (skeletal and cardiac) and fibroblast (e.g. HeLa, HePa) cell lines, macrophages, and chick embryo cells. […] To overcome the problems of overgrowth of the monolayer and a low percentage of infected cells, often associated with the use of cell lines, irradiated rat L6 myoblasts are used.
# [3] = tested on: T.b. brucei, T.b. gambiense and T.b. rhodesiense; test: Isolated bloodstream trypomastigote (TRY) in-vitro screen; format: cell-based
# Description: (§1) Primary screening for new trypanocides has made extensive use of rodent systems, in which host survival time is a simple indicator of drug activity. In-vitro screens have used a variety of trypomastigote types (see Table 3, below). […] Most early in-vitro screens employed a short test in which bloodstream trypomastigotes were isolated from an infected rodent and maintained for up to 24 h in a simple drug-containing media. Two significant modifications of this technique include maintaining isolated bloodstream trypomastigotes in drug-containing media for 3-4 hours at 37° C in micro-titre plates and their subsequent viability assessed by the uptake of radiolabelled precursors or motility and infectivity to mice.
# In-vitro studies on isolated bloodstream trypomastigotes were also used in the rational biochemical approaches towards the chemotherapy of T. brucei infections involving inhibitors of carbohydrate catabolism salicyl hydroxamic acid plus glycerol), of polyamine synthesis (methylgyoxal bis-guanylhydrazone and - DFMO), and of surface coat glycoprotein synthesis (Tunicamycin). In these studies, activity of the compounds are shown in-vitro and in-vivo, whereas the sensitivity of isolated bloodstream trypomastigotes to toxic oxygen radicals generated by naphthoquinones was not shown by the parasites in mice. The activity of the standard anti-trypanosomals-melarsoprol, pentamidine and suramin and tested compounds according to the present invention in in-vitro systems is shown in Table 3.
# (§2) In-vitro and in-vivo models were used to test activities of a selection of many compounds. Those activities are summarized in Tables 1-3, showing variation between systems and species. Activities measured in the MP mo and HM mo models have shown the best correlation with results obtained in hamster and mouse models.
# [4] = tested on: Human peripheral blood mononuclear cells; test: Experiment 1a(d): human cell viability, trypan blue counts; format: cell-based; settings: 18 hours; for Cells/ml (x10^5) / Viability (%): 37° C
# Description: Human peripheral blood mononuclear cells were incubated for 18 hours in the presence of various concentrations of IPA and azidothymidine (AZT) at 37° C after which time cell viability was determined by visual counts of cells in the presence of trypan blue. Two controls were run, one with each series of experiments.
# [5] = Solubility of IPA in water; format: physicochemical
# [6] = Case study two: HIV positive patient, IPA orally; format: in vivo, human
# Description: In another case study, […], a homosexual person, was diagnosed HIV positive in June, 1986. […] was also diagnosed as having hepatitis at that time. Beginning on May 7, 1990, IPA was administered orally to […] On May 7, 1990, […] was experiencing (1) weight loss, (2) night sweats, (3) thrush, (4) fungal infections, (5) pneumonia, (6) diarrhea, and (7) hairy leukoplakia.
# Prior to treatment with IPA, V.T. had experienced diarrhea and night sweats for the previous six weeks. […] […] […] As of July 26, 1990, V.T.'s helper/suppressor ration was 0.93.
# [7] = tested on: T.b. brucei, T.b. gambiense and T.b. rhodesiense; test: Procyclic trypomastigote (TRY) in-vitro screen; format: cell-based; also: key: - no/poor activity,; + fair/moderate activity,; ++ good/excellent activity
# Description: as §1, §2
# RH strain T. gondii = test: Growth of Toxoplasma gondii in human foreskin fibroblasts, tritiated uracil incorporation; format: cell-based; settings: various concentrations; Figure 24
# Description: An experiment was conducted to evaluate the in-vitro effects of IPA on Toxoplasma Gondii by infecting human foreskin fibroblast monolayers (four replicates per condition) with RH strain T. gondii in the presence of various concentrations of IPA dissolved in Eagle's minimum essential medium without fetal bovine serum. After an initial four hour period of infection, the media and any T. gondii which had not entered the host cells were removed and replaced by media containing 1 u.M tritiated uracil per milliter, and incubated overnight. The mono-layers were lysed, nucleic acids precipitated by trichloroacetic acid, and the precipitates recovered on glass fiber filters. Radioactivity on the filters was measured in a Beckman scintillation spectrometer. Controls included fibroblast monolayers without T. gondii (cell control) and fibroblast monolayers infected by the same inoculum of T. gondii as the IPA treated monolayers (Tg control). The units of uracil incorporation are somewhat lower here because of the lower inoculum of T. gondii.
# L donovani = test: Amastigote-promastigote (AM-PRO) transformation, in-vitro; format: cell-based; settings: Ld.
# HIV-1 and CAEV = test: Inhibition of virus replication, summary over viruses and cell lines of Figure 15; format: cell-based; settings: depending upon the virus and cell line
# Description: Selected results presented in Tables la(a), la(b) and la(c) are plotted in Figure 15.
# It is apparent from Figure 15 that IPA appears to inhibit the replication of HIV-1 and CAEV at concentrations ranging from 3 to 30 µM and above. Without appropriate toxicity data it is not possible to calculate the therapeutic index at the various drug concentrations. Nevertheless, the IC50 can be seen to vary between approximately 2-6 u.M, depending upon the virus and cell line, and the ICso varies between 3-30 µM in these experiments.
smiles,measurement,setting,value
"CC(C)=CCNc1ncnc2c1ncn2[C@@H]1O[C@H](CO)[C@@H](O)[C@H]1O [IPA, N^6-(Δ^2-isopentenyl) adenosine]","activity, TRY",T. cruzi [1]; T. cruzi strain Sonya,"+ (Y,Sonya)"
same,"activity, TRY",T. cruzi [1]; T. cruzi strain Y,"+ (Y,Sonya)"
same,levels of Epstern-Barr Virus (EBV),Epstern-Barr Virus (EBV),reduces
same,"activity, intracellular AM",T. cruzi [2]; T. cruzi strain Sonya,"++(Y,Sonya)"
same,"activity, intracellular AM",T. cruzi [2]; T. cruzi strain Y,"++(Y,Sonya)"
same,"activity, isolated bloodstream TRY",[3],+
same,Cells/ml (x10^5),[4]; 0.1 µM,2.4 Cells/ml (x10^5)
same,Viability (%),[4]; 0.1 µM,86%
same,Cells/ml (x10^5),[4]; 0.3 µM,1.8 Cells/ml (x10^5)
same,Viability (%),[4]; 0.3 µM,82%
same,Cells/ml (x10^5),[4]; 1 µM,2.8 Cells/ml (x10^5)
same,Viability (%),[4]; 1 µM,100%
same,Cells/ml (x10^5),[4]; 3 µM,2.6 Cells/ml (x10^5)
same,Viability (%),[4]; 3 µM,87%
same,Cells/ml (x10^5),[4]; 10 µM,3.0 Cells/ml (x10^5)
same,Viability (%),[4]; 10 µM,94%
same,Cells/ml (x10^5),[4]; 30 µM,3.8 Cells/ml (x10^5)
same,Viability (%),[4]; 30 µM,95%
same,Cells/ml (x10^5),[4]; 100 µM,3.8 Cells/ml (x10^5)
same,Viability (%),[4]; 100 µM,90%
same,Cells/ml (x10^5),[4]; 300 µM,2.2 Cells/ml (x10^5)
same,Viability (%),[4]; 300 µM,79%
same,Cells/ml (x10^5),[4]; 1000 µM,2.8 Cells/ml (x10^5)
same,Viability (%),[4]; 1000 µM,82%
same,Cells/ml (x10^5),[4]; 3000 µM,2.2 Cells/ml (x10^5)
same,Viability (%),[4]; 3000 µM,92%
same,cell viability,[4]; 6mM,slight reduction
same,Cells/ml (x10^5),[4]; 6000 µM,2.4 Cells/ml (x10^5)
same,Viability (%),[4]; 6000 µM,75%
same,toxic effect (cell viability),[4]; concentrations of from 0.1 µM to 3 u.M,no toxic effect
same,solubility in water,[5],does not readily dissolve in water
same,toxic side effects,[6],no permanent toxic side effects
same,weight stabilized at,[6],133 lbs
same,hairy leukoplakia,[6]; IPA orally,complete remission
same,helper/suppressor ratio,"[6]; July 26, 1990",0.93
same,weight,"[6]; June 11, 1990, 119 lbs on May 7, 1990 (start of IPA)",132 lbs
same,helper/suppressor ratio,"[6]; June 21, 1990, 0.53 on May 7, 1990",0.65
same,T4 count,"[6]; June 21, 1990, 207 on May 7, 1990",330
same,time in which diarrhea and night sweats cleared,"[6]; after the beginning of the treatment, symptoms for the previous six weeks",≤ 48 h
same,weight gain,[6]; over the first month of treatment,about 0.5 lbs per day
same,"activity, procyclic TRY",[7],+
same,effect on the growth of T. gondii,RH strain T. gondii,inhibitory effect
same,"Activity, AM-PRO transform-ation",L donovani,+ +
same,ICso,HIV-1 and CAEV,3 to 30 µM
same,IC50,HIV-1 and CAEV; approximately,2 to 6 µM

# From EP0462621A2, “Use of particular compounds for manufacture of pharmaceutical formulations for treatment against various parasites, mycoplasmas, other indications and other infections” (Prendergast, Patrick Thomas, priority 1990, dated 1991)
